Measured values taken from US20180325872A1, “COMPOUNDS FOR TREATMENT OF CANCER” (UNIVERSITY OF TENNESSEE RESEARCH FOUNDATION, priority 2013, published 2018).
Read-outs that look alike come from different tables or passages of the source.

Assays:
[1] = biological target: T1, Bovine brain tubulin (Bos taurus, UniProt P81947+Q6B856); assay: In vitro microtubule polymerization assay (Example 6); type: biochemical; details: absorbance at 340 nm, 15 min; for inhibition of tubulin polymerization: 10 μM
T1 construct: purchased Cytoskeleton, Denver, Colo; host or cells: brain tissue
Description: The absorbance at 340 nm was monitored every 1 min for 15 min by the SYNERGY 4 Microplate Reader (Bio-Tek Instruments, Winooski, Vt.). The spectrophotometer was set at 37° C. for tubulin polymerization.

[2] = test system: B16-F1 melanoma cells; assay: B16-F1 melanoma colony formation assay in soft agar; type: cell-based, mouse; details: 14 days
Description: B16-F1 melanoma cells were plated at a colony-forming density (2000 cells per well on six-well plates) on top of 0.8% base agar. Cells were grown in 0.4% agar together with DMEM medium supplemented with fetal bovine serum and an antibiotic-antimycotic solution at 37° C. in an atmosphere of 95% air and 5% CO2. […] Compounds were added to the media from 1 mM DMSO stock solutions, and a corresponding dilution of DMSO was used as control. Cells were grown for 14 days. Plates were photographed, and the number of colonies was measured by Artek 880 Automated Colony Counter (Artek Systems Corporation, Farmingdale, N.Y.).

[3] = test system: melanoma nodules in the lungs; assay: Melanoma lung metastasis model in mice; type: in vivo, mouse; details: i.p. injection 5 days per week for 2 weeks (n=8 per group)
Source text: Panel A: Representative photos of lungs with melanoma nodules (black dots, n=8 per group). Treatment was i.p. injection 5 days per week for 2 weeks. Panel B: Number of melanoma nodules on each lung. Points: individual nodule number; long line in the middle: mean; short line on the top and bottom: 95% confidence intervals ** and ##: p<0.01. Panel C: Mouse body weight changes during the experiment. Points: means; bars: SD. Control: vehicle solution only.

[4] = test system: A375RF21 cells; assay: Cell cycle analysis (flow cytometry) in A375RF21; type: cell-based, human; details: for G2/M arrest: A375RF21, 20 nM
Description: (§1) Flow cytometry analysis was performed as described before (Wang Z, Chen J, Wang J, et al. “Novel tubulin polymerization inhibitors overcome multidrug resistance and reduce melanoma lung metastasis.” Pharm. Res. (2012) 29: 3040-3052). To determine cell cycle distributions in the G2 and M phases (FIG. 23), cells were harvested with trypsin, stained using antiphospho-histone H3-AlexaFluor® 488 antibody on ice for one hour in the dark, followed by stained using PI/RNase solution for 30 minutes at room temperature in the dark per the manufacturer's instructions (#FCCH025103, EMD Millipore Corporation, Ballerica, Mass.). Data were further processed and graphs were prepared using the Modfit 2.0 program (Verity Software House, Topsham, Me.).

[5] = test system: A375RF21; assay: In vitro combination assay (combination index) in A375RF21; type: cell-based, human; details: combination with vemurafenib
Source text: (§3) Cell proliferation viability was investigated using MTS or SRB assay as described previously. An in vitro study of the combination of vemurafenib and the tubulin inhibitors was designed and conducted using CalcuSyn software (Biosoft, Ferguson, Mo.) with five duplicates of each set of treatment. Drug concentrations were selected based on the IC50 value of each drug tested from a pilot study.

[6] = test system: A375 human melanoma xenograft; details: 12da 25 mg/kg; Wang Z et al., Pharm. Res. 29(11); cited from earlier work
[7] = test system: NCl/ADR-RES; assay: In vitro growth inhibition, NCI/ADR-RES; type: cell-based; details: Homo sapiens, Table 9, read-out: IC50 ± SEM (nM) NCl/ADR-RES
[8] = test system: pAKT/tAKT and pERK in A375RF21 cells; assay: Western blot analysis in A375RF21; type: cell-based, human
Description: (§2) At the indicated time treatment, human melanoma A375RF21, MDA-MB-435 or WM164 cells were collected to investigate relevant cascade protein or apoptosis markers by western blots. Total protein was extracted by lysing cells with RIPA buffer (Sigma-Aldrich, St. Louis, Mo.) containing phosphatase-proteinase inhibitor cocktail (Sigma-Aldrich, St. Louis, Mo.). General protein concentration was then determined by BCA method using kit (Sigma-Aldrich, St. Louis, Mo.). The cell lysates were diluted to equal general protein concentration using Laemmli loading buffer (Bio-Rad, Hercules, Calif.) and boiled for 5 min to denature the protein. Then group samples containing 10 μg general proteins were loaded to each well of 4-15% Tris-HCl pre-cast polyacrylamide gel (Bio-Rad, Hercules, Calif.) for electrophoresis and subsequently transferred to 0.2 μm nitrocellulose membrane (Bio-Rad, Hercules, Calif.). […] Target proteins were detected by incubating with 1× LumiGLO® reagent (Cell Signaling, #7003) for one minute and exposed to x-ray film. The films were scanned with grey scale and lane intensities were quantified with the ImageJ software (NIH, Bethesda, Md., USA).

[9] = test system: pAKT/tAKT in MDA-MB-435 cells; assay: Western blot analysis in MDA-MB-435; type: cell-based, human; details: MDA-MB-435, 48 h
Description: as §2

[10] = test system: OVCAR-8; assay: In vitro growth inhibition, OVCAR-8; type: cell-based; details: Homo sapiens, OVCAR-8; Table 9; read-out: IC50 ± SEM (nM) OVCAR-8
[11] = test system: pAKT/tAKT in WM164 cells; assay: Western blot analysis in WM164; type: cell-based, human; details: WM164, 48 h
Description: as §2

[12] = test system: three melanoma cell lines and four human prostate cancer cell lines; assay: Antiproliferative activity, average over melanoma and prostate cancer cell lines; type: cell-based; details: for IC50: Homo sapiens, discussion of Tables 8-10
[13] = test system: A375 human melanoma xenograft; assay: A375 human melanoma xenograft in SHO nude mice; type: in vivo; details: 12fb 25 mg/kg, 31 days
Description: SHO nude mice bearing an A375 human melanoma xenograft (n=5 per group). Each mouse received 2.5×10^6 cells by s.c. injection into the flank. 30 μL i.p. daily treatments were started when the tumor size reached ˜150 mm^3. Control, vehicle solution only; points, means; bars, SD.
In vivo evaluation of efficacy. […] The cell suspension (100 μL) was injected subcutaneously in the right dorsal flank of each mouse. When tumor size reached about 100-150 mm^3, about 7 days after cell inoculation, all mice bearing tumors were divided into control and treatment groups based on tumor size (n=5 per group). Each group had similar average tumor size. Mice in control groups (negative control) were injected intraperitoneally with 50 μL vehicle solution only or DTIC at 60 mg/kg (positive control) once daily. Tumor volume was measured every 2 days with a traceable electronic digital caliper (Fisher Scientific, Inc., Pittsburgh, Pa.) and calculated using the formula a×b^2×0.5, where a and b represented the larger and smaller diameters, respectively. Tumor volume was expressed in cubic millimeters. Data were expressed as mean±SE for each group and plotted as a function of time. […] Animal activity and average body weight of each group were monitored during the entire experiment period to assess compound toxicity. […]

[14] = test system: A375; assay: Cell culture cytotoxicity (SRB) assay, A375; type: cell-based, human; details: Table 9, SRB, 48 h; read-out: IC50 ± SEM (nM) A375
[15] = test system: Du 145; assay: Cell culture cytotoxicity (SRB) assay, Du 145; details: read-out: inhibitory effects DU145; Table 10B, anti-proliferation
[16] = test system: A375RF21 cells; assay: Apoptosis detection (Annexin V-FITC / propidium iodide); details: A375RF21, 48 h, Annexin V / propidium iodide flow cytometry
[17] = test system: PC-3; assay: Apoptosis (cytoplasmic DNA-histone complex formation) in PC-3; type: cell-based, human; details: PC-3, 0.8 to 600 nmol/L, 24 h
[18] = test system: PC-3/TxR tumors; details: PC-3/TxR xenograft, day 1 and 9; for Tumor size, End: end point day 19
[19] = test system: PC-3 tumors; assay: PC-3 xenograft in nude mice; details: day 1 and 9, end point day 19
[20] = test system: PC-3/TxR; assay: Apoptosis (cytoplasmic DNA-histone complex formation) in PC-3/TxR; type: cell-based, human; details: 0.8 to 600 nmol/L, 24 h
[21] = test system: A375 cells; assay: Cell proliferation MTS assay, parental A375; details: Homo sapiens, A-375, read-out: IC50 for proliferation inhibition
Source text: as §3

[22] = test system: A375 cells; assay: Cell cycle analysis (flow cytometry) in A375; type: cell-based, human
Description: as §1

[23] = test system: Bovine brain tubulin; assay: HTS-tubulin polymerization assay (Example 1); details: 20 μM, purified-protein assay
[24] = test system: A375RF21 cells; assay: Cell proliferation MTS assay, vemurafenib-resistant A375RF21
Source text: as §3

T1 sequence (P81947 whole entry): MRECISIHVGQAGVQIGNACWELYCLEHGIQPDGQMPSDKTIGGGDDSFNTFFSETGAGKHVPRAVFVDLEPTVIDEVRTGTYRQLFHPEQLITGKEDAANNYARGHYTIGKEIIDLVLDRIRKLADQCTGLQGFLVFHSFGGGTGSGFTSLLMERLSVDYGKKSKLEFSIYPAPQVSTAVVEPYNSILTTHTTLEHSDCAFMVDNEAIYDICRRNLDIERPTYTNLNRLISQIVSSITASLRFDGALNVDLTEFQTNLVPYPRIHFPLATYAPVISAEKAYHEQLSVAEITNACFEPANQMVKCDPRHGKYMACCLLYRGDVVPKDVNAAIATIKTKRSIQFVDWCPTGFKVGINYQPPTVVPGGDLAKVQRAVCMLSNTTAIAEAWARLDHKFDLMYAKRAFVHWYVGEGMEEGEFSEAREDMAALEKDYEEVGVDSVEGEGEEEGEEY
T1 sequence (Q6B856 whole entry): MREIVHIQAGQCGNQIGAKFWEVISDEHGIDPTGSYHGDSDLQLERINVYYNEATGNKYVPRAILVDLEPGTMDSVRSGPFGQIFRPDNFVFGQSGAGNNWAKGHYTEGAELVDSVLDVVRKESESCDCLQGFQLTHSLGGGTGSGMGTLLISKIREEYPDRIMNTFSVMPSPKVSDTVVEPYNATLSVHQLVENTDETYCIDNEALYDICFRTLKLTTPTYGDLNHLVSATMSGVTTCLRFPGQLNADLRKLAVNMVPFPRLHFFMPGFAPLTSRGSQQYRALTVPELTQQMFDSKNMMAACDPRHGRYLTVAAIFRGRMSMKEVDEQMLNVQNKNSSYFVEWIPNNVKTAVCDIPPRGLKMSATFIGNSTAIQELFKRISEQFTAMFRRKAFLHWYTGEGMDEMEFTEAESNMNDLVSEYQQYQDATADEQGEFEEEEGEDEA

## COc1ccc(-c2nc(C(=O)c3ccc(F)cc3)c[nH]2)cc1 [12cb, (4-fluorophenyl)(2-(4-methoxyphenyl)-1H-imidazol-4-yl)methanone]
[1]
  inhibition of tubulin polymerization: inhibited tubulin polymerization
  inhibition at 10 µM: ~80%
[2]; 20 nM
  inhibition of colony formation: effectively inhibited
[3]
  inhibition of metastasis of melanoma to the lungs: inhibition

## COc1cc(C(=O)c2c[nH]c(-c3ccc(C)cc3)n2)cc(OC)c1OC [12da, (2-(p-tolyl)-1H-imidazol-4-yl)(3,4,5-trimethoxyphenyl)methanone]
[4]; 24 h
  G2/M arrest: induced G2/M arrest
[1]
  inhibition of tubulin polymerization: inhibited tubulin polymerization
[5]
  calculated CI values, all concentrations tested: 0.53-0.70
[2]; 20 nM
  inhibition of colony formation: effectively inhibited
[3]
  inhibition of metastasis of melanoma to the lungs: inhibition
[6]
  suppression of parental A375 melanoma tumor growth in vivo: effective
[7]
  IC50: 19 nM
[8]; A375RF21, 48 h incubation
  effect on pERK or total ERK level: no obvious effect
[9]
  pAKT/tAKT inhibition: strong dose-dependent pAKT/tAKT inhibition effects
[10]
  IC50: 47 nM
[11]
  pAKT/tAKT inhibition: strong dose-dependent pAKT/tAKT inhibition effects

## Cc1ccc(-c2nc(C(=O)c3ccc(F)cc3)c[nH]2)cc1 [12db, (4-fluorophenyl)(2-(p-tolyl)-1H-imidazol-4-yl)methanone]
[1]
  inhibition of tubulin polymerization: inhibited tubulin polymerization

## COc1cc(C(=O)c2c[nH]c(-c3cc(OC)c(OC)c(OC)c3)n2)cc(OC)c1OC [12ea, (3,4,5-trimethoxyphenyl)(2-(3,4,5-trimethoxyphenyl)-1H-imidazol-4-yl)methanone]
[12]
  IC50: 1000 to 50000 nM

## O=C(c1ccc(F)cc1)c1c[nH]c(-c2ccc(Cl)cc2)n1 [12fb, (2-(4-chlorophenyl)-1H-imidazol-4-yl)(4-fluorophenyl)methanone]
[13]
  tolerability: well tolerated dose
[2]; 100 nM
  inhibition of colony formation: effective inhibition
[3]
  inhibition of metastasis of melanoma to the lungs: inhibition

## O=C(c1ccc(F)cc1)c1c[nH]c(-c2ccccc2C(F)(F)F)n1 [12ib, (4-fluorophenyl)(2-(2-(trifluoromethyl)phenyl)-1H-imidazol-4-yl)methanone]
[12]
  IC50: 1000 to 50000 nM

## O=C(c1ccc(F)cc1)c1c[nH]c(-c2ccc(OCc3ccccc3)cc2)n1 [12jb, (2-(4-(benzyloxy)phenyl)-1H-imidazol-4-yl)(4-fluorophenyl)methanone]
[12]; discussion of Table 9
  fold increase in activity compared with the para-hydroxy compound 12kb: 440 fold

## COc1cc(C(=O)c2c[nH]c(-c3ccc(O)cc3)n2)cc(O)c1OC [12kc]
[14]
  IC50: 10000 nM

## COc1ccc(C(=O)c2nc(-c3cc(OC)c(OC)c(OC)c3)c[nH]2)cc1 [70y]
[15]
  IC50: > 50000 nM

## CC(=O)O[C@@]12CO[C@@H]1C[C@H](O)[C@@]1(C)C(=O)[C@H](O)C3=C(C)[C@@H](OC(=O)[C@H](O)[C@@H](NC(=O)OC(C)(C)C)c4ccccc4)C[C@@](O)([C@@H](OC(=O)c4ccccc4)[C@H]21)C3(C)C [Docetaxel, reference compound]
[16]
  cell apoptosis or death (sum of Q1, Q2 and Q4): 6.4±3.0%
[4]; 24 h
  G2/M arrest: induced G2/M arrest
[17]
  induction of cell apoptosis (DNA-histone complexes): highly potent to induce apoptosis
[18]; IV 10 mpk
  Tumor size, End: 1774 ± 183 mm^3
  Tumor size, Start: 143 ± 20 mm^3
[18]; IV 20 mpk
  Tumor size, End: 999 ± 905 mm^3
  Tumor size, Start: 170 ± 86 mm^3
[19]; IV 10 mpk
  Body weight, End: 24 ± 2 g
[19]; IV 20 mpk
  Body weight, End: 24 ± 3 g
[20]
  induction of cell apoptosis (DNA-histone complexes): weaker

## CCCS(=O)(=O)Nc1ccc(F)c(C(=O)c2c[nH]c3ncc(-c4ccc(Cl)cc4)cc23)c1F [Vemurafenib]
[16]
  cell apoptosis or death (sum of Q1, Q2 and Q4): 11.9±3.5%
[4]; A375RF21, 1 μM, 24 h
  G0/G1 arrest: could not arrest
[4]; resistant A375RF21, single agent
  concentration needed to produce G0/G1 cell cycle arrest: ≥ 30 µM
[21]
  IC50: 570 ± 30 nM
[22]; A375, 1 μM, 24 h
  G0/G1 arrest: effectively arrested
[22]; parental A375, single agent
  concentration needed to produce G0/G1 cell cycle arrest: less than 1 μM
[23]
  effect on tubulin polymerization: did not significantly influence tubulin polymerization
[23]; listed as vemurafenib
  effect on tubulin polymerization: did not have any effect on tubulin polymerization
[8]; A375RF21, 48 h, quantified lane density
  level of pAKT relative to tAKT: 70%
[24]; Homo sapiens, read-out: IC50 for proliferation inhibition
  IC50: 28900 ± 600 nM
[24]; MTS assay
  fold increase of IC50 in A375RF21 versus parental A375: over 50 fold
